Source: BigSolDB 2.1

O=C1O[B-]2(OC1=O)OC(=O)C(=O)O2.[Li+]
solubility (mole fraction)
Details	293.15 K	303.15 K	313.15 K	323.15 K	333.15 K	343.15 K	353.15 K	363.15 K
in DMF	0.114	0.0838	0.0658	0.0542	0.0404	0.0352	0.0323	0.023
in DMSO	0.148	0.139	0.127	0.113	0.0989	0.0869	0.0774	0.0666
in THF	0.0479	0.0336	0.0269	0.0217	0.0172	–	–	–
in acetonitrile	0.00893	0.00869	0.00803	0.00653	0.00566	0.00297	–	–
in gamma-butyrolactone	0.1	0.0796	0.0544	0.0372	0.0248	0.0163	0.00786	0.00503
in propylene carbonate	0.0393	–	0.0312	0.0214	0.0106	0.00574	0.00218	0.00132
